Reference: publication PMC9409351, “Differential Ganglioside and Cholesterol Depletion by Various Cyclodextrin Derivatives and Their Effect on Synaptosomal Glutamate Release” (International Journal of Molecular Sciences, 2022)

Assays:
[1] = system: rat cerebral synaptosomes; assay: Membrane integrity by LDH release assay; assay type: cell-based; conditions: for IC50: 40 min exposure, LDH release as percentage of total LDH (Triton X-100 lysis); for Maximal effect (plateau) of LDH release: percentage of total LDH content
Method: Adult male Wistar rats purchased from Toxi-Coop Ltd. (Budapest, Hungary) were used in the experiments. Cerebral synaptosomes were prepared according to Modi and co-workers with the following modifications. Animals were decapitated and the brain was removed rapidly. Isotonic sucrose buffer (0.32 M sucrose, 4 mM HEPES-NaOH, pH 7.4) was used to homogenize the cerebrum with a Potter S Homogenizer (B. Braun, Melsungen, Germany) with 15 strokes at 1000 rpm. The homogenate was centrifuged (1500× g, 10 min, 4 °C) and the pellet was resuspended in sucrose buffer and centrifuged with the same parameters again. The two supernatants were combined and centrifuged (20,000× g, 10 min, 4 °C) to pellet the crude synaptosomes. […] Synaptosomes were stored frozen using cryopreservation buffer and the slow freezing method to preserve their physiological state and integrity. Briefly, synaptosome pellets were resuspended in isotonic sucrose buffer containing 10% DMSO (v/v) and 10% FBS (v/v). To slow down the freezing process at −80 °C, synaptosomes were placed in a 3 cm thick-walled polystyrene box with a lid. Synaptosomes were stored at −80 °C until use. Immediately prior to the experiments, synaptosomes were rapidly thawed in a 37 °C water bath and pelleted by centrifugation (20,000× g, 10 min, 4 °C) to remove the cryopreservation buffer. […] For all types of experiments, except for the glutamate release measurements, vehicle-treated (control) and CD-treated synaptosomes were incubated in 500 μL HEPES-glucose buffer with or without CDs, respectively, for 40 min at 37 °C. […] After incubation, the synaptosomes were centrifuged (20,000× g, 5 min, 4 °C) and used immediately for further analysis. A slightly different incubation method used in the glutamate release measurements is described in the corresponding section. Across all types of experiments, osmolarities of the CD solutions were adjusted and they were between 290 and 310 mOsm. At least three parallel measurements were carried out. The membrane integrity of the synaptosomes was measured by the CytoTox-ONE Homogeneous Membrane Integrity Assay (Promega, Madison, WI, USA) with minor modifications. The assay measures the release of the lactate dehydrogenase (LDH) enzyme from synaptosomes with damaged membranes. […] Both the supernatant and lysis samples were diluted 10-fold. The LDH activity was then assessed according to the manufacturer’s instructions and the fluorescence was measured by a Varioskan LUX multimode microplate reader (Thermo Fisher Scientific) at 530/590 nm.

[2] = system: GM2 and GM3 immunoreactivity; design: method as in PMID 27231706; conditions: NPC mouse model; cited from earlier work
[3] = system: cell model of GM1 gangliosidosis; design: method as in doi:10.1007/s10847-018-0835-8; conditions: immunofluorescence staining; cited from earlier work
[4] = system: rat cerebral synaptosomes; assay: Resazurin reduction viability assay; assay type: cell-based; conditions: for IC50 / Concentration with significant decrease in viability / metabolic activity: 40 min exposure; for IC50: percentage of vehicle-treated synaptosomes; for Concentration with significant decrease in viability / metabolic activity: resazurin reduction
Method: Adult male Wistar rats purchased from Toxi-Coop Ltd. (Budapest, Hungary) were used in the experiments. Cerebral synaptosomes were prepared according to Modi and co-workers with the following modifications. Animals were decapitated and the brain was removed rapidly. Isotonic sucrose buffer (0.32 M sucrose, 4 mM HEPES-NaOH, pH 7.4) was used to homogenize the cerebrum with a Potter S Homogenizer (B. Braun, Melsungen, Germany) with 15 strokes at 1000 rpm. The homogenate was centrifuged (1500× g, 10 min, 4 °C) and the pellet was resuspended in sucrose buffer and centrifuged with the same parameters again. The two supernatants were combined and centrifuged (20,000× g, 10 min, 4 °C) to pellet the crude synaptosomes. […] Synaptosomes were stored frozen using cryopreservation buffer and the slow freezing method to preserve their physiological state and integrity. Briefly, synaptosome pellets were resuspended in isotonic sucrose buffer containing 10% DMSO (v/v) and 10% FBS (v/v). To slow down the freezing process at −80 °C, synaptosomes were placed in a 3 cm thick-walled polystyrene box with a lid. Synaptosomes were stored at −80 °C until use. Immediately prior to the experiments, synaptosomes were rapidly thawed in a 37 °C water bath and pelleted by centrifugation (20,000× g, 10 min, 4 °C) to remove the cryopreservation buffer. […] For all types of experiments, except for the glutamate release measurements, vehicle-treated (control) and CD-treated synaptosomes were incubated in 500 μL HEPES-glucose buffer with or without CDs, respectively, for 40 min at 37 °C. […] After incubation, the synaptosomes were centrifuged (20,000× g, 5 min, 4 °C) and used immediately for further analysis. A slightly different incubation method used in the glutamate release measurements is described in the corresponding section. Across all types of experiments, osmolarities of the CD solutions were adjusted and they were between 290 and 310 mOsm. At least three parallel measurements were carried out. Viability of the rat cerebral synaptosomes was measured by the Resazurin Cell Viability Kit (Cell Signaling Technology Inc., Danvers, MA, USA) with minor modifications. The assay was based on the reduction in the nonfluorescent resazurin to highly fluorescent resorufin by intracellular dehydrogenase enzymes. Briefly, after CD treatments, 2 mg of the synaptosomes were centrifuged (20,000× g, 5 min, 4 °C) and the supernatant was discarded. […] After 25 min of incubation, synaptosomes were centrifuged (20,000× g, 5 min, 4 °C). Fluorescence of the supernatant was measured with a Varioskan LUX multimode microplate reader (Thermo Fisher Scientific) at 530/590 nm. Viability of the CD-treated synaptosomes was calculated as the percentage of vehicle-treated control synaptosomes.

Row | IC50 ([1]; Rattus norvegicus, 40 min) | Compound | IC50 [1] | Accumulation of GM2 and GM3 immunoreactivity [2] | Lysosomal accumulation of GM1 [3] | Maximal effect (plateau) of LDH release [1] | IC50 ([4]; Rattus norvegicus, 40 min) | Concentration with significant decrease in viability / metabolic activity [4] | Viability at 60 mM ([4]; 60 mM) | IC50 [4] | Concentration with influence on membrane integrity ([1]; LDH release, highest tested concentration)
1 | – | (2-hydroxypropyl)-alpha-cyclodextrin [HPACD] | > 100 mM | much less effective compared to HPBCD | reduced lysosomal accumulation of GM1 | – | – | – | – | – | –
2 | 31 mM | CC(O)COC[C@H]1O[C@@H]2O[C@H]3[C@H](O)[C@@H](O)[C@@H](O[C@H]4[C@H](O)[C@@H](O)[C@@H](O[C@H]5[C@H](O)[C@@H](O)[C@@H](O[C@H]6[C@H](O)[C@@H](O)[C@@H](O[C@H]7[C@H](O)[C@@H](O)[C@@H](O[C@H]8[C@H](O)[C@@H](O)[C@@H](O[C@H]1[C@H](O)[C@H]2O)O[C@@H]8COCC(C)O)O[C@@H]7COCC(C)O)O[C@@H]6COCC(C)O)O[C@@H]5COCC(C)O)O[C@@H]4COCC(C)O)O[C@@H]3COCC(C)O (stereo partly drawn) [HPBCD, (2-hydroxypropyl)-beta-cyclodextrin] | – | reduces the accumulation of GM2 and GM3 immunoreactivity | – | 43% | > 100 mM | 100000 µM | – | – | –
3 | – | COC[C@H]1O[C@@H]2O[C@H]3[C@H](O)[C@@H](OC)[C@@H](O[C@H]4[C@H](O)[C@@H](OC)[C@@H](O[C@H]5[C@H](O)[C@@H](OC)[C@@H](O[C@H]6[C@H](O)[C@@H](OC)[C@@H](O[C@H]7[C@H](O)[C@@H](OC)[C@@H](O[C@H]8[C@H](O)[C@@H](OC)[C@@H](O[C@H]1[C@H](O)[C@H]2OC)O[C@@H]8COC)O[C@@H]7COC)O[C@@H]6COC)O[C@@H]5COC)O[C@@H]4COC)O[C@@H]3COC [DIMEB, heptakis(2,6-di-O-methyl)-beta-cyclodextrin] | 18.3 mM | – | – | about 60% | – | higher than 10 mM | total loss of viability | 26.5 mM | –
4 | – | randomly methylated alpha-cyclodextrin [RAMEA] | > 60 mM | – | – | – | – | 100000 µM | – | ~90 mM | 100000 µM
